Like-named read-outs stand apart in the source and are kept apart here.
Columns and labels:
[1] = Solubility in aqueous media; assay type: physicochemical; settings: reason why efficacy could not be detected
[2] = system: Hep G2 (ATCC HB-8065) cells; test: Cytotoxicity, MTT assay; assay type: cell-based; settings: Homo sapiens, HepG2, 24 h, Hep G2; MTT, 24 hours incubation; read-out: IC50
Procedure: (§1) Before removing the frozen cell stocks from liquid nitrogen, culture medium was pre-warmed to 37° C. The frozen tube was then removed from liquid nitrogen and placed into a 37° C. water bath and shaken gently to thaw the cell stock as quickly as possible. A small portion of the pre-warmed culture medium was added to the cell solution. The cell suspension was then centrifuged at 1000 r/min for 3 minutes. The supernatant was discarded and the cells were resuspended in fresh culture medium.
(§2) NIH 3T3 (ATCC CRL-1658) and Hep G2 (ATCC HB-8065) cells were cultured with DMEM+10% FBS in 100 mm dishes. Cells were lifted for subculture or testing when confluence reached ˜60% by treating with 1× trypsin (incubated for 3 min at 37° C.). J774 (ATCC TIB-67) cells were cultured with DMEM+10% FBS in 100 mm dishes. Cells were lifted for subculture or testing when confluence reached ˜80% using a cell scraper. RAW264.7 (ATCC TIB-71) cells were cultured with DMEM+10% heat-inactivated FBS+1% pen/strep in T75 flasks. Cells were lifted for subculture or testing when confluence reached ˜80% using a cell scraper.
(§3) • 1. Cells were lifted and resuspended in culture medium. The number of cells in the cell suspension was determined using an auto-cell counter: 10 μL of the cell suspension was mixed with 10 μL 1× trypan blue (filtered with 0.2 μm PES filter) and the mixture was loaded onto a cell counting slide. Based on the concentration of viable cells, the cell suspension was further diluted to achieve the desired density. • 2. Cells were seeded in 96 well plates by adding 100 μL final cell suspension column-by-column using a multichannel pipette (5000 cells/well for NIH 3T3, 10000 cells/well for Hep G2, J774 and RAW264.7). The outer wells were block with PBS to reduce the effects of evaporation. One column was filled with only culture medium as a blank. Cells were incubated overnight before adding the test articles. • 3. Test articles were dissolved in 1×PBS (or DMSO) to obtain stocks solution. Stock solutions were pre-warmed before use. […] Serial dilutions (2-fold) of the 10× solutions were made in sterile culture tubes by diluting in 1×PBS (8 dilutions to yield 9 test concentrations). 900 μL of culture media was added to each tube to obtain final drug solution containing 10% PBS (or less than 1% DMSO) for each experimental group. • 4. The original culture medium was gently removed from the 96-well plates using a pipette. 100 μL of the test article solutions prepared in Step 3 were added to rows 2-7 of each column to obtain six replicates for each concentration. Plates were then incubated for 24 hours. • 5. MTT solutions were prepared by dissolving commercial MTT powder in 1×PBS to a concentration of 5 mg/mL. After passing through a 0.22 μm PES filter, the MTT solution was divided into 1 mL portions in sterile centrifuge tubes and stored at −20° C. • 6. MTT stock solutions were removed from the freezer to thaw at room temperature. Before adding MTT solutions, cell cultures were visually inspected and imaged using a microscope (to use as a comparison with MTT results). 10 μL of the 5 mg/mL MTT solution was added to each well and the plate was incubated for 4 hours. • 7. After 4 h incubation, the culture medium/MT solution was removed gently using a pipette. 100 μL of DMSO was added to each well using a multichannel pipette. The 96-well plates were analyzed in a plate reader using the following method: shake for 5 minutes, wait for 30 seconds, and measure absorbance at 570 nm. • 8. Data processing: The average of background Abg was calculated from the blank column. All other data was first treated by subtracting Abg. The average A. and standard deviation Se of each experimental group and the average Ac and standard deviation Sc for control group (with pure culture medium incubation) were then calculated. The cell viability was determined as Ae/Ac×100% and corresponding error as Se/Ae×100%. Significant outliers in any experimental or control group were removed. […]

[3] = system: K. aerogenes (ATCC 13048); test: MIC broth microdilution method, Table 3
[4] = system: S. epidermidis (ATCC 14990); test: MIC broth microdilution method, Table 3
E. coli K12 (ATCC 47076) = test: MIC broth microdilution method, Table 3
J774 (ATCC TIB-67) cells = test: Cytotoxicity, MTT assay; assay type: cell-based; settings: for IC50: MTT, 24 hours incubation
Procedure: as §1, §2, §3

[5] = system: NIH 3T3 (ATCC CRL-1658) cells; test: Cytotoxicity, MTT assay; assay type: cell-based; settings: NIH 3T3; for IC50: MTT, 24 hours incubation
Procedure: as §1, §2, §3

Cytotoxicity, MTT assay = assay type: cell-based; settings: human, Hep G2 (ATCC HB-8065) cells; Hep G2; at the concentration given as IC50 bound; read-out: cell viability at the highest or lowest test concentration
Procedure: as §1, §2, §3

HRPTEpiC = test: Cytotoxicity tested by Eurofins Pharma Discovery Services; assay type: cell-based; settings: data provided by Eurofins
Hep G2 cells = test: as above; assay type: cell-based; settings: for IC50: Hep G2, data provided by Eurofins
[6] = system: RAW264.7 (ATCC TIB-71) cells; test: Cytotoxicity, MTT assay; assay type: cell-based, murine; settings: RAW 264.7
Procedure: as §1, §2
• 1. Cells were lifted and resuspended in culture medium. The number of cells in the cell suspension was determined using an auto-cell counter: 10 μL of the cell suspension was mixed with 10 μL 1× trypan blue (filtered with 0.2 μm PES filter) and the mixture was loaded onto a cell counting slide. Based on the concentration of viable cells, the cell suspension was further diluted to achieve the desired density. • 2. […] The 96-well plates were analyzed in a plate reader using the following method: shake for 5 minutes, wait for 30 seconds, and measure absorbance at 570 nm. • 8. Data processing: The average of background Abg was calculated from the blank column. […] The average A. and standard deviation Se of each experimental group and the average Ac and standard deviation Sc for control group (with pure culture medium incubation) were then calculated. The cell viability was determined as Ae/Ac×100% and corresponding error as Se/Ae×100%. […]

[7] = system: primary human hepatocytes; test: Cytotoxicity tested by Eurofins Pharma Discovery Services; assay type: cell-based; settings: for IC50: data provided by Eurofins
[8] = Klebsiella aerogenes, ATCC13048
[9] = Staphylococcus epidermidis, ATCC14990
[10] = Mus musculus, NIH3T3, read-out: IC50
[11] = at the concentration given as IC50 bound

CC(C)(C)c1cc[n+](CCCCCCOc2cc(/C=C/c3cc(OCCCCCC[n+]4ccc(C(C)(C)C)cc4)cc(OCCCCCC[n+]4ccc(C(C)(C)C)cc4)c3)cc(OCCCCCC[n+]3ccc(C(C)(C)C)cc3)c2)cc1.[I-].[I-].[I-].[I-] [Formula D]
solubility [1]: low solubility | IC50 [2]: 20.7 µg/mL

CCCCC[N+](C)(C)CCCCOc1cc(/C=C/c2ccc(/C=C/c3cc(OCCCC[N+](C)(C)CCCCC)cc(OCCCC[N+](C)(C)CCCCC)c3)cc2)cc(OCCCC[N+](C)(C)CCCCC)c1 [Formula S]
MIC [3, 8]: 8 µg/mL | MIC [4, 9]: 2 µg/mL | MIC (E. coli K12 (ATCC 47076); Escherichia coli, ATCC47076): 4 µg/mL | IC50 (J774 (ATCC TIB-67) cells; Mus musculus, read-out: IC50): 22.6 µg/mL | IC50 [5, 10]: 42.3 µg/mL | viability at 24 h (Cytotoxicity, MTT assay): 52% | IC50 [2]: > 128 µg/mL

Colistin [reference compound]
MIC ([3]; K. aerogenes (−), LB medium, less than 10% relative growth): 2 µg/mL | MIC ([4]; S. epidermidis (+), BHI medium, less than 10% relative growth): >64 µg/mL | IC50 (HRPTEpiC): 215 µg/mL | cell viability at the highest or lowest test concentration (Hep G2 cells; Hep G2, Eurofins, at the concentration given as IC50 bound): (100%) | IC50 (Hep G2 cells): >324 µg/mL | IC50 ([6]; MTT, 24 hours incubation): >20 µg/mL | cell viability at the highest or lowest test concentration [6, 11]: (109%) | cell viability at the highest or lowest test concentration ([7]; Eurofins, at the concentration given as IC50 bound): (101%) | IC50 [7]: >324 µg/mL | MIC (E. coli K12 (ATCC 47076); E. coli K12 (−), LB medium, less than 10% relative growth): 1 µg/mL | IC50 (J774 (ATCC TIB-67) cells): >128 µg/mL | cell viability at the highest or lowest test concentration (J774 (ATCC TIB-67) cells; [11]): (115%) | IC50 [5]: >128 µg/mL | cell viability at the highest or lowest test concentration [5, 11]: (104%)

C[N+](C)(C)CCCCCCOc1cc(/C=C/c2ccc(/C=C/c3ccc(/C=C/c4cc(OCCCCCC[N+](C)(C)C)cc(OCCCCCC[N+](C)(C)C)c4)cc3)cc2)cc(OCCCCCC[N+](C)(C)C)c1 [Formula TT]
MIC [3, 8]: > 128 µg/mL | MIC [4, 9]: 4 µg/mL | IC50 (HRPTEpiC; read-out: IC50): 6.3 µg/mL | IC50 (Hep G2 cells; Homo sapiens, HepG2, read-out: IC50): 94.6 µg/mL | IC50 ([7]; Hepatocyte, read-out: IC50): 102 µg/mL | MIC (E. coli K12 (ATCC 47076); Escherichia coli, ATCC47076): > 256 µg/mL | IC50 [5, 10]: 69.3 µg/mL | viability at 24 h (Cytotoxicity, MTT assay): 70% | IC50 [2]: > 128 µg/mL

Source: patent US11713318B2, “Short conjugated oligoelectrolytes and uses thereof” (The Regents Of The University Of California, priority 2018, dated 2023)
